Test results as given in patent publication EP3940071A1, “5-METHYLFOLATE PRODUCING MICROORGANISM” (Chifeng Pharmaceutical Co., Ltd, priority 2020, dated 2022).

Experiment: Stability of folic acid in 0.1 M NaOH (HPLC)
Type: physicochemical
Conditions: 25 °C, protected from light, 144 hours (6 days)

Nc1nc2ncc(CNc3ccc(C(=O)N[C@@H](CCC(=O)O)C(=O)O)cc3)nc2c(=O)[nH]1 [folic acid, pteroyl-L-glutamic acid]
decomposition of folic acid: did not undergo to decomposition
